The text below walks through data of patent publication US20250270255A1, “CASPASE-2 INHIBITOR COMPOUNDS” (KINTSUGI THERAPEUTICS S.L., priority 2021, published 2025).

For assay [1], the target named is T1, caspase-3 (Homo sapiens, UniProt P42574).
T1 construct: made in house
T1 sequence (P42574 29-175 limits assumed): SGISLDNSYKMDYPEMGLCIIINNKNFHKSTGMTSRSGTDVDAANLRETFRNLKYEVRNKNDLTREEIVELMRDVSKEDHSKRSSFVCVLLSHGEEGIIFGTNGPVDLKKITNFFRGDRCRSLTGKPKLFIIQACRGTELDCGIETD
T1 sequence (P42574 176-277 limits assumed): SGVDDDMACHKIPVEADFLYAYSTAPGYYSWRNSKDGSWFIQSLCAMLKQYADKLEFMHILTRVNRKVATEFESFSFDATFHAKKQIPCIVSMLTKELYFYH
The experiment in a line: Determination of kobs/I inhibition parameter. In kind it is biochemical. The note with it: pH 7.3; pseudo-first-order conditions; substrate Ac-DEVD-ACC 100 uM; 37° C. The method, then:
(§1) The measurement of kobs/l inhibition parameter (second order rate of enzyme inhibition) of synthesized inhibitors towards caspases-2, -3, and -8 was performed using a fMax spectrofluorimeter (Molecular Devices, Sunnyvale, CA, USA) operating in fluorescence kinetic mode in 96-well Corning (Corning, NY, USA) plates. Before kinetic analysis, all caspases were active site-titrated using the zVAD-fmk inhibitor (Cayman Chemical Company, Cat No. 14467). The caspases assay buffer was 10% w/v sucrose, […], 20 mM Pipes, 10 mM NaCl, 1 mM EDTA, and 10 mM DTT (pH=7.3). Buffers were prepared at room temperature, and all kinetic assays were performed at 37° C. The kobs/l parameter was measured under pseudo-first-order kinetic conditions ([I]>>[E]). […] The ACC fluorescence was monitored using 355 nm (excitation) and 460 nm (emission) wavelengths. […] At the same time in a separate tube, the caspase was preincubated in assay buffer at 37 C, and after 15 min, the enzyme was added to wells (60 uL per well, total reaction volume 100 uL) and the fluorescence was monitored for 30 min, starting immediately. Second-order rate of inhibition (Kobs/l) was determined in at least three independent experiments and presented as an average value. […]

The target of assay [2] is T2, caspase-8 (Homo sapiens, UniProt Q14790).
T2 construct: made in house
T2 sequence (Q14790 217-374 limits assumed): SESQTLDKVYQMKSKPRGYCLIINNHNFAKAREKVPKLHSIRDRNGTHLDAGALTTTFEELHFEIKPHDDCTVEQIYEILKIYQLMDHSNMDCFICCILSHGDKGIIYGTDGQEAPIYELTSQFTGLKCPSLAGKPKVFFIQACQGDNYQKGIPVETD
T2 sequence (Q14790 385-479 limits assumed): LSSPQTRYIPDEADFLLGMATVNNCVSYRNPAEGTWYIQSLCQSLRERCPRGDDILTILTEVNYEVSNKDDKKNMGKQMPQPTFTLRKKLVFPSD
The experiment in a line: Determination of kobs/I inhibition parameter. The note with it: pH 7.3; pseudo-first-order conditions; substrate Ac-LEHD-ACC 100 uM; 37° C. In kind it is biochemical. As to the method:
as §1

For assay [3], the target named is T3, caspase-2 (Homo sapiens, UniProt P42575).
T3 sequence (P42575 170-325 limits assumed): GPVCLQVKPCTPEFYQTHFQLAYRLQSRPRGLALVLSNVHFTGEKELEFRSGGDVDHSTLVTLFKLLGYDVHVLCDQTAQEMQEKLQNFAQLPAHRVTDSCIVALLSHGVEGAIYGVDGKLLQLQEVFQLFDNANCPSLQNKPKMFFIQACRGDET
T3 sequence (P42575 348-452 limits assumed): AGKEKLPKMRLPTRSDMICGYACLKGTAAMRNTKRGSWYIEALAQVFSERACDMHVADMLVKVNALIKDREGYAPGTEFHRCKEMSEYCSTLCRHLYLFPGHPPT
Kind of assay: Determination of kobs/I inhibition parameter. In kind it is biochemical. The note with it: pH 7.3; pseudo-first-order conditions; substrate NH-Idc-hGlu-Thr(Bzl)-Ser-Asp-ACC 50 uM; 37° C. Set-up: made in house. The method, then: as §1

The target in assay [4] is T2, caspase-8. Kind of assay: Determination of Ki and IC50 inhibition parameters. In kind it is biochemical. Conditions: for Ki: Morrison equation, 15 min pre-incubation with inhibitor at 37 C.
In assay [5] the target is T3, caspase-2. The experiment in a line: Determination of Ki and IC50 inhibition parameters. In kind it is biochemical. Set-up: made in house. The note with it: for Ki: Morrison equation, 15 min pre-incubation with inhibitor at 37 C; for IC50: calculated as IC50=Ki×(1+[S]/Km), substrate NH-Idc-hGlu-Thr(Bzl)-Ser-Asp-ACC 50 uM. The method, then:
(§2) The detailed protocol for the expression and purification of human apoptotic caspases can be found elsewhere (Stennicke, 1999).
(§3) The measurement of Ki and IC50 inhibition parameter of synthesized inhibitors towards caspases-2, -3, and -8 was performed using a fMax spectrofluorimeter (Molecular Devices, Sunnyvale, CA, USA) operating in fluorescence kinetic mode in 96-well Corning (Corning, NY, USA) plates. Before kinetic analysis, all caspases were active site-titrated using the zVAD-fmk inhibitor (Cayman Chemical Company, Cat No. 14467). The caspases assay buffer was 10% w/v sucrose, […], 20 mM Pipes, 10 mM NaCl, 1 mM EDTA, and 10 mM DTT (pH=7.3). Buffers were prepared at room temperature, and all kinetic assays were performed at 37° C. The Ki parameter was measured using the Morrison equation (Copeland, 2000). For each caspase, an appropriate ACC-fluorogenic substrate was used to monitor substrate hydrolysis: NH-Idc-hGlu-Thr(Bzl)-Ser-Asp-ACC (50 uM) for caspase-2, Ac-DEVD-ACC (100 uM) for caspase-3 and Ac-LEHD-ACC (100 uM) for caspase-8. The ACC fluorescence was monitored using 355 nm (excitation) and 460 nm (emission) wavelengths. To meet the criteria for reversible inhibitor kinetics, the lowest inhibitor concentration was at least 4-fold higher that the caspase concentration in the assay. The caspase (60 uL) was first pre-warmed in the assay buffer in the 96-well plate for 15 min at 37 C and then pre-incubated with the inhibitor (20 uL) for another 15 min at 37 C. Next, the substrate (20 uL) was added to the enzyme-inhibitor mixture and the progress of reaction (ACC release) was monitored over time. The Ki parameter was calculated from Morrison equation, and the IC50 parameter was calculated using the formula: IC50=Ki×(1+[S]/Km], where the [S] is substrate concentration used in the assay and Km is a Michaelis-Menten constant for a substrate. All the measurements were performed at least three times and the data was analyzed using GraphPad Prism 7 software.

Assay [6] addresses T1, caspase-3. The experiment in a line: Determination of Ki and IC50 inhibition parameters. In kind it is biochemical. The note with it: for Ki: Morrison equation, 15 min pre-incubation with inhibitor at 37 C. As to the method:
as §2, §3

The target in assay [7] is T3, caspase-2. Conditions: state of the art; cited from earlier work.
A further assay concerns HepG2 cells. The experiment in a line: Intracellular lipid accumulation, in vitro cellular model of NASH. In kind it is cell-based. Set-up: inhibition of intracellular lipid-accumulation: dose or concentration left out as unconfirmed. The note with it: for inhibition of intracellular lipid-accumulation: NASH-triggered HepG2 cultures, FIG. 4. As to the method:
HepG2 cells (50.000 cells/well) were plated into 12-multiwell culture dishes on coverslips previously coated with collagen (2 mg/mL collagen solution (BD Biosciences) in PBS incubated at 37° C. for 30 min).
Cells were treated with a “NASH cocktail”: DMEM containing 4.5 mg/mL glucose supplemented with 10% (v/v) FBS, 1% (v/v) PenStrep and 2 mM L-glutamine plus fatty acids (100 μM sodium oleate and 100 μM palmitic acid), 100 nM insulin (all Sigma-Aldrich) and inflammatory cytokines (50 ng/ml tumor necrosis factor, TNF-α (Prospec), 25 ng/ml interleukin IL-1β (Petroteck) and 8 ng/ml transforming growth factor, TGF-β (R&D Systems)). The cells were exposed for 24h to this “NASH cocktail” and KIN compounds were concomitantly added at different concentrations.
At the end of treatments cells were washed with PBS and incubated with staining solution (BODIPY493/503 (Thermo Fisher Scientific) for 15 min at 37° C. Then cells were washed three times with PBS and were fixed in 4% PFA for 30 min at room temperature. After three additional washes with PBS, coverslips were mounted onto glass slides with a drop of Prolong® Gold antifade reagent (Invitrogen) with DAPI overnight at room temperature. Fluorescence micrographs were taken using an Axoimagen M1 microscope (Zeiss, Oberkochen, Germany) and fluorescent signals (DAPI and BODIPY) were quantified using ImageJ (n=10). The intracellular lipid load was calculated as a function of BODIPY™ 493/503 lipid dye area.
An in vitro cellular model of NASH was used to test the efficacy of caspase-2 inhibitors preventing intracellular accumulation of lipids. In this model, HepG2 cells are exposed for 24 h to “NASH conditions” including lipogenic (glucose, insulin, fatty acids) and inflammatory and pro-apoptotic (TNF-α, IL-1β, and TGF-β) triggers. […] This model has shown to correlate with human NASH pathology (Boeckmans et al. 2019).

The target of assay [8] is T3, caspase-2. Conditions: Poreba et al. (2019); cited from earlier work.
Assay [9] has as its target T3, caspase-2. Kind of assay: Kinetic assay of substrates NH-Idc-P4-P3-Dab-Asp-ACC (Example 4). Conditions: substrate 10 μM; caspase-2 10 nM; 37° C. In kind it is biochemical. As to the method: Prior to kinetic assay, substrates (several L) were diluted in DMSO to the […] (working concentration). Next, 1 μL of such substrate was spot into the well of 96-well plate following by the addition of […] of caspase-2 in buffer. Immediately after the enzyme was added, the plate was placed in fluorescence plate reader and the fluorescence was measured over the time in a kinetic mode (excitation 355 nm, emission 460 nm). The liberation of fluorescence was carried out for 30 minutes, and only linear portion of the plot was taken for analysis to calculate the rate of the reaction. The rate of best cleaved substrate was set to 100% and all other substrates were adjusted accordingly (cleavage rate, %). The final concentration of substrate was 10 μM, and the final concentration of caspase-2 was 10 nM. The caspase-2 assay buffer was 20 mM Pipes, 100 mM NaCl, sucrose 10% (w/v), 10 mM DTT, pH 7.2-7.4. The caspase-2 was preincubated in buffer at 37° C. for 15 min before added to the substrate.

[10] abbreviates: calculated as IC50=Ki×(1+[S]/Km), substrate Ac-LEHD-ACC 100 uM.
[11] abbreviates: calculated as IC50=Ki×(1+[S]/Km), substrate Ac-DEVD-ACC 100 uM.

As a reminder, the kinact/KI is the second-order rate constant of inactivation. What is called IC50 is the concentration that gives 50% inhibition. The Ki is the equilibrium dissociation constant of an inhibitor or competing ligand from its target.

Like-named read-outs stand apart in the source and are kept apart here. Where a SMILES comes first, the peptide text is derived from it. The star is where a group is joined. AspCH2OBz(2,6-Me2) = Cc1cccc(C)c1C(=O)OCC(=O)[C@H](CC(=O)O)N*

Regarding `CC(=O)N[C@H](C(=O)N[C@@H](CC(=O)O)C(=O)N[C@H](C(=O)N[C@@H](C)C(=O)N[C@@H](CC(=O)O)C(=O)COC(=O)c1c(C)cccc1C)C(C)C)C(C)C` [Ac-Val-Asp-Val-Ala-Asp-AOMK, reference compound] (Ac-VDVA-{AspCH2OBz(2,6-Me2)}), the second-order inactivation constant (kinact/KI) is 1.36e+06 M⁻¹ s⁻¹ on caspase-3 [1], 98.4 M⁻¹ s⁻¹ on caspase-8 [2] and 643 M⁻¹ s⁻¹ at caspase-2 [3]. Moreover, the IC50 against caspase-8 [4] is 16 nM; at caspase-2 [5], 4.9 nM; against caspase-3 [6], 0.1 nM. The Ki amounted to 2.2 nM at caspase-8 [4] and 0.4 nM at caspase-2 [5].
As for Ac-VDVAD-aldehyde, the “potency against caspase-3 compared with caspase-2” value on caspase-2 [7] was “more potent against caspase-3 than to caspase-2”.
As for “NH-Idc-hGlu-Thr(Bzl)-Dab-Asp-AOMK [Compound 2]”, the Ki is 209 nM on caspase-8 [4], 1.1 nM at caspase-2 [5] and 29.3 nM at caspase-3 [6]. Besides, the IC50 was 1540 nM at caspase-8 [4] (setting [10]), 12 nM at caspase-2 [5] and 193 nM on caspase-3 [6] (setting [11]). The “inhibition of intracellular lipid-accumulation” value (shortened to “inhibition”) with HepG2 cells is reported as “significantly higher percentage of inhibition than NH-23-C2 compound”.
For “NH-Idc-hGlu-Thr(Bzl)-Lys-Asp-AOMK [Compound 1]”, the figures for the Ki at caspase-8 [4], on caspase-2 [5] and at caspase-3 [6] were 6.7 nM, 0.8 nM and 3.8 nM, respectively. Besides, the IC50 at caspase-8 [4] (setting [10]) was 49.8 nM; on caspase-2 [5], 8.8 nM; at caspase-3 [6] (setting [11]), 24.8 nM. The “efficacy inhibiting intracellular lipid accumulation” value in the assay with HepG2 cells (HepG2 under NASH conditions, inhibitors at 10, 20 and […], FIG. 5) is “better efficacy than NH-23-C2”. Besides, the “inhibition” value with HepG2 cells is given as “significantly higher percentage of inhibition than NH-23-C2 compound”.
In the case of “NH-Idc-hGlu-Thr(Bzl)-Orn-Asp-AOMK [Compound 3]”, the Ki stood at 43.3 nM at caspase-8 [4], 0.7 nM at caspase-2 [5] and 13.8 nM on caspase-3 [6]. Moreover, the IC50 at caspase-8 [4] (setting [10]) was 320 nM; on caspase-2 [5], 7.4 nM; at caspase-3 [6] (setting [11]), 91 nM. Besides, the “inhibition” value with HepG2 cells was “significantly higher percentage of inhibition than NH-23-C2 compound”.
For the molecule “NH-Idc-hGlu-Thr(Bzl)-Ser-Asp-AOMK [reference compound]”, the Ki at caspase-8 [4] was found to be 6.2 nM; at caspase-2 [5], 0.7 nM; at caspase-3 [6], 1.1 nM. The 50% inhibitory concentration (IC50) on caspase-8 [4] (setting [10]) is 46.2 nM; at caspase-2 [5], 7.9 nM; on caspase-3 [6] (setting [11]), 7.1 nM. The Caspase-2 inhibitory activity entry at caspase-2 [8] is given as “highest Caspase-2 inhibitory activity among the assayed compounds”. The “selectivity for Caspase-3” value on caspase-2 [8] was “no selectivity for Caspase-3”. Further, on caspase-2 [8], the “selectivity for Caspase-8” value is reported as “limited selectivity for Caspase-8”.
In the case of NH-Idc-hLeu-Thr(Bzl)-Dab-Asc-ACC, the “RFU/s, %, average (cleavage rate, best substrate set to 100%)” value at caspase-2 [9] is recorded as 0.0%.
